Assay results taken from the NIST ThermoML archive (doi:10.1016/j.fluid.2013.07.044).
± gives the expanded uncertainty stated by the source.

Assay: Boiling temperature at pressure P
Details: Liquid, Ebulliometric method (Recirculating still)

CCCCCCC [heptane]
Details	Boiling temperature at pressure P [°C]
10.23 kPa	35.76 ± 0.47
16.91 kPa	47.28 ± 0.41
23.5 kPa	55.43 ± 0.3
35.39 kPa	66.27 ± 0.24
56.16 kPa	79.51 ± 0.22
67.57 kPa	85.09 ± 0.2
74.44 kPa	88.22 ± 0.2
79.37 kPa	90.30 ± 0.19
86.51 kPa	93.16 ± 0.19
100.11 kPa	98.06 ± 0.18

CCCO [propan-1-ol]
Details	Boiling temperature at pressure P [°C]
69.79 kPa	87.71 ± 0.18
74.92 kPa	89.5 ± 0.18
79.6 kPa	90.96 ± 0.18
84.8 kPa	92.6 ± 0.18
89.78 kPa	93.99 ± 0.18
94.77 kPa	95.37 ± 0.17
99.7 kPa	96.67 ± 0.17
105.14 kPa	98.2 ± 0.17
110.1 kPa	99.27 ± 0.17
113.19 kPa	100.00 ± 0.17
120.75 kPa	101.73 ± 0.17
130.1 kPa	103.76 ± 0.17
171 kPa	111.42 ± 0.26
199.9 kPa	115.99 ± 0.23
228.5 kPa	120.00 ± 0.23
229.9 kPa	120.20 ± 0.23
260 kPa	123.98 ± 0.21
290 kPa	127.42 ± 0.2
310 kPa	129.56 ± 0.2
330 kPa	131.59 ± 0.2
350 kPa	133.54 ± 0.19
380 kPa	136.28 ± 0.19
400 kPa	138.03 ± 0.19
420 kPa	139.69 ± 0.18
450 kPa	142.08 ± 0.18
480 kPa	144.37 ± 0.18
500 kPa	145.81 ± 0.18
520 kPa	147.22 ± 0.18
530 kPa	147.91 ± 0.18
550 kPa	149.26 ± 0.18
561.5 kPa	150.01 ± 0.18

CCCCCCCC [octane]
Details	Boiling temperature at pressure P [°C]
22.95 kPa	79.68 ± 0.31
29.98 kPa	87.07 ± 0.29
37.87 kPa	93.74 ± 0.26
44.82 kPa	98.74 ± 0.23
52.81 kPa	103.78 ± 0.22
59.85 kPa	107.72 ± 0.21
66.66 kPa	111.21 ± 0.2
75.23 kPa	115.23 ± 0.2
82.72 kPa	118.44 ± 0.19
89.51 kPa	121.17 ± 0.19
99.01 kPa	124.72 ± 0.19

C1CCCCC1 [cyclohexane]
Details	Boiling temperature at pressure P [°C]
24.08 kPa	39.63 ± 0.29
30.7 kPa	45.81 ± 0.27
38.72 kPa	51.92 ± 0.24
46.85 kPa	57.17 ± 0.22
55.2 kPa	61.86 ± 0.21
61.52 kPa	65.06 ± 0.2
69.06 kPa	68.52 ± 0.2
77.87 kPa	72.22 ± 0.19
85.44 kPa	75.13 ± 0.19
91.68 kPa	77.38 ± 0.18
101.32 kPa	80.63 ± 0.18

CCO [ethanol]
Details	Boiling temperature at pressure P [°C]
20.14 kPa	42.46 ± 0.26
30.24 kPa	50.67 ± 0.24
40.31 kPa	56.77 ± 0.21
50.39 kPa	61.69 ± 0.19
70.33 kPa	69.34 ± 0.19
80.63 kPa	72.62 ± 0.18
85.67 kPa	74.11 ± 0.17
98.45 kPa	77.53 ± 0.17
100.79 kPa	78.13 ± 0.17
110.86 kPa	80.53 ± 0.17
120.93 kPa	82.77 ± 0.17
131.02 kPa	84.84 ± 0.17
141.1 kPa	86.79 ± 0.17
151.1 kPa	88.62 ± 0.27
160 kPa	90.41 ± 0.26
170 kPa	92.09 ± 0.24
180 kPa	93.62 ± 0.24
190 kPa	95.16 ± 0.23
200 kPa	96.60 ± 0.23
